According to PubChem BioAssay AID248 (DTP/NCI, 2004):
Several values for one entry are separate records, joined by “and”; a condition that tells them apart may be missing. Equal entries are not always repeated. Inconclusive results and toxic doses are left out.

Test system: L1210 leukemia ip in BDF1 mice, survival T/C
Test: NCI In Vivo Anticancer Drug Screen. Data for tumor model L1210 Leukemia (intraperitoneal) in B6D2F1 (BDF1) mice
Settings: endpoint: mean survival time, higher = longer survival
Outline: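 Read-out is survival time, reported as the treated-group measurement over the vehicle-control measurement.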

[1] = dose: 50.0 mg/kg/injection, schedule: Q01DX001 (ip), vehicle: carboxymethylcellulose (CMC)
[2] = dose: 100.0 mg/kg/injection, schedule: Q01DX001 (ip), vehicle: carboxymethylcellulose (CMC)
[3] = dose: 200.0 mg/kg/injection, schedule: Q01DX001 (ip), vehicle: carboxymethylcellulose (CMC)
[4] = dose: 100.0 mg/kg/injection, schedule: Q01DX001 (ip), vehicle: saline
[5] = dose: 200.0 mg/kg/injection, schedule: Q01DX001 (ip), vehicle: saline
[6] = dose: 100.0 mg/kg/injection, schedule: Q01DX009 (ip), vehicle: saline with Tween-80
[7] = dose: 200.0 mg/kg/injection, schedule: Q01DX009 (ip), vehicle: saline with Tween-80
[8] = dose: 400.0 mg/kg/injection, schedule: Q01DX009 (ip), vehicle: saline with Tween-80
[9] = dose: 50.0 mg/kg/injection, schedule: Q01DX009 (ip), vehicle: saline with Tween-80
[10] = dose: 400.0 mg/kg/injection, schedule: Q01DX001 (ip), vehicle: saline
[11] = dose: 100.0 mg/kg/injection, schedule: Q01DX009 (ip), vehicle: Klucel (hydroxypropylcellulose) (HPC)
[12] = dose: 100.0 mg/kg/injection, schedule: Q04DX003 (ip), vehicle: Klucel (hydroxypropylcellulose) (HPC)
[13] = dose: 200.0 mg/kg/injection, schedule: Q04DX003 (ip), vehicle: Klucel (hydroxypropylcellulose) (HPC)
[14] = dose: 400.0 mg/kg/injection, schedule: Q04DX003 (ip), vehicle: Klucel (hydroxypropylcellulose) (HPC)
[15] = dose: 100.0 mg/kg/injection, schedule: Q04DX002 (ip), vehicle: Klucel (hydroxypropylcellulose) (HPC)

With `O=C(Nc1ccc(F)cc1)Nc1cccc(O)c1` the T/C [1] was 106 % of control, the T/C (dose: 50.0 mg/kg/injection, schedule: Q04DX002 (ip), vehicle: carboxymethylcellulose (CMC)) was 97 % of control and 98 % of control and the T/C (dose: 50.0 mg/kg/injection, schedule: Q04DX003 (ip), vehicle: carboxymethylcellulose (CMC)) was 101 % of control. For the same compound, the T/C [2] was 103 % of control, the T/C (dose: 100.0 mg/kg/injection, schedule: Q01DX009 (ip), vehicle: carboxymethylcellulose (CMC)) was 92 % of control and 101 % of control and the T/C (dose: 100.0 mg/kg/injection, schedule: Q04DX002 (ip), vehicle: carboxymethylcellulose (CMC)) was 94 % of control and 95 % of control and 98 % of control. The T/C (dose: 100.0 mg/kg/injection, schedule: Q04DX003 (ip), vehicle: carboxymethylcellulose (CMC)) was 102 % of control, the T/C [3] was 96 % of control and the T/C (dose: 200.0 mg/kg/injection, schedule: Q01DX009 (ip), vehicle: carboxymethylcellulose (CMC)) was 98 % of control. For the same compound, the T/C (dose: 200.0 mg/kg/injection, schedule: Q04DX002 (ip), vehicle: carboxymethylcellulose (CMC)) was 95 % of control and 101 % of control and 90 % of control, the T/C (dose: 200.0 mg/kg/injection, schedule: Q04DX003 (ip), vehicle: carboxymethylcellulose (CMC)) was 98 % of control and the T/C (dose: 400.0 mg/kg/injection, schedule: Q01DX009 (ip), vehicle: carboxymethylcellulose (CMC)) was 98 % of control and 103 % of control.

For `C[n+]1cccc2c(C(=O)O)cccc21`, the T/C [4] was 97 % of control and the T/C [5] was 96 % of control.

`Brc1ccc(N(Cc2ccccc2)Cc2ccccc2)cc1` was tested, and the T/C [6] was 100 % of control, the T/C [7] was 86 % of control and the T/C [8] was 89 % of control.

For `S=C(NCCNC(=S)Nc1ccccc1)Nc1ccccc1`, the T/C [9] was 98 % of control, the T/C [6] was 92 % of control and the T/C [7] was 92 % of control.

For `Nc1ccc(OCc2ccccc2)cc1`, the T/C [9] was 96 % of control, the T/C (dose: 50.0 mg/kg/injection, schedule: Q04DX003 (ip), vehicle: saline with Tween-80) was 100 % of control and the T/C [6] was 87 % of control. The T/C (dose: 100.0 mg/kg/injection, schedule: Q04DX003 (ip), vehicle: saline with Tween-80) was 103 % of control and the T/C (dose: 200.0 mg/kg/injection, schedule: Q04DX003 (ip), vehicle: saline with Tween-80) was 109 % of control.

With `O=C1CC2CCCC1C2` (stereo not given) the T/C [4] was 98 % of control, the T/C [5] was 109 % of control and the T/C [10] was 112 % of control.

In the case of `O=[N+]([O-])c1cc([N+](=O)[O-])c(NN(c2ccc(Cl)cc2)c2ccc(Cl)cc2)c([N+](=O)[O-])c1`, the T/C (dose: 25.0 mg/kg/injection, schedule: Q01DX009 (ip), vehicle: Klucel (hydroxypropylcellulose) (HPC)) is reported as 96 % of control, the T/C (dose: 50.0 mg/kg/injection, schedule: Q01DX009 (ip), vehicle: Klucel (hydroxypropylcellulose) (HPC)) is reported as 105 % of control and the T/C [11] is reported as 98 % of control. The T/C [12] was 98 % of control, the T/C [13] was 96 % of control and the T/C [14] was 96 % of control.

With `CC(C)P(=O)(OCc1ccccc1)C(C)C` the T/C [11] was 97 % of control, the T/C (dose: 200.0 mg/kg/injection, schedule: Q01DX009 (ip), vehicle: Klucel (hydroxypropylcellulose) (HPC)) was 94 % of control and the T/C (dose: 400.0 mg/kg/injection, schedule: Q01DX009 (ip), vehicle: Klucel (hydroxypropylcellulose) (HPC)) was 89 % of control.

In the case of `C=CCNC(=S)Nc1ccccc1C=O`, the T/C (dose: 25.0 mg/kg/injection, schedule: Q04DX002 (ip), vehicle: Klucel (hydroxypropylcellulose) (HPC)) is reported as 100 % of control, the T/C (dose: 50.0 mg/kg/injection, schedule: Q04DX002 (ip), vehicle: Klucel (hydroxypropylcellulose) (HPC)) is reported as 106 % of control and the T/C [15] is reported as 110 % of control and 90 % of control.

`O=C1C=CC(=Nc2ccc(Cl)cc2)O1` was tested, and the T/C [6] was 104 % of control, the T/C [7] was 102 % of control and the T/C [8] was 97 % of control.

In the case of `NC(=O)NCCc1ccccc1`, the T/C [12] is reported as 102 % of control, the T/C [13] is reported as 97 % of control and the T/C [14] is reported as 102 % of control.

With `C1=CCC2CN(CCCN3CCOCC3)CC2C1` (stereo not given) the T/C (dose: 100.0 mg/kg/injection, schedule: Q01DX001 (ip), vehicle: saline with Tween-80) was 103 % of control, the T/C (dose: 200.0 mg/kg/injection, schedule: Q01DX001 (ip), vehicle: saline with Tween-80) was 108 % of control and the T/C (dose: 400.0 mg/kg/injection, schedule: Q01DX001 (ip), vehicle: saline with Tween-80) was 105 % of control.

With `Cn1c2ccccc2c(=O)c2c(O)cc3c(c21)C=C(Br)C(C)(C)O3` the T/C [1] was 88 % of control, the T/C [2] was 93 % of control and the T/C [3] was 98 % of control. For the same compound, the T/C (dose: 400.0 mg/kg/injection, schedule: Q01DX001 (ip), vehicle: carboxymethylcellulose (CMC)) was 90 % of control.

With `CCCCCCCCCCCCCCCCOc1ccccc1/C=C/C(=O)O` the T/C [12] was 91 % of control, the T/C [13] was 88 % of control and the T/C [14] was 95 % of control.

In the case of `CCC1(O)CC2CN(CCc3c([nH]c4ccccc34)C(C(=O)OC)(c3cc4c(cc3OC)N(C)C3C(O)(C(=O)NCCO)C(O)C5(CC)C=CCN6CCC43C65)C2)C1` (stereo not given), the T/C (dose: 0.16 mg/kg/injection, schedule: Q01DX009 (ip), vehicle: saline) is reported as 123 % of control, the T/C (dose: 0.39 mg/kg/injection, schedule: Q04DX003 (ip), vehicle: saline) is reported as 158 % of control and the T/C (dose: 1.2 mg/kg/injection, schedule: Q01DX009 (ip), vehicle: saline) is reported as 116 % of control. For the same compound, the T/C (dose: 389.0 micrograms/kg/injection, schedule: Q04DX003 (ip), vehicle: saline) was 118 % of control, the T/C (dose: 648.0 micrograms/kg/injection, schedule: Q04DX003 (ip), vehicle: saline) was 106 % of control and the T/C (dose: 1080.0 micrograms/kg/injection, schedule: Q04DX003 (ip), vehicle: saline) was 123 % of control. The T/C (dose: 5000.0 micrograms/kg/injection, schedule: Q04DX003 (ip), vehicle: saline) was 115 % of control.

In the case of `O=[N+]([O-])c1cc(Cl)c(O)c(Cl)c1Cl`, the T/C (dose: 25.0 mg/kg/injection, schedule: Q01DX009 (ip), vehicle: acetone) is reported as 97 % of control, the T/C (dose: 50.0 mg/kg/injection, schedule: Q01DX009 (ip), vehicle: acetone) is reported as 97 % of control and the T/C (dose: 50.0 mg/kg/injection, schedule: Q04DX003 (ip), vehicle: acetone) is reported as 95 % of control. The T/C (dose: 100.0 mg/kg/injection, schedule: Q01DX001 (ip), vehicle: acetone) was 102 % of control, the T/C (dose: 100.0 mg/kg/injection, schedule: Q01DX009 (ip), vehicle: acetone) was 88 % of control and the T/C (dose: 100.0 mg/kg/injection, schedule: Q04DX003 (ip), vehicle: acetone) was 92 % of control. The T/C (dose: 150.0 mg/kg/injection, schedule: Q01DX009 (ip), vehicle: saline) was 90 % of control, the T/C (dose: 200.0 mg/kg/injection, schedule: Q01DX001 (ip), vehicle: acetone) was 100 % of control and the T/C (dose: 225.0 mg/kg/injection, schedule: Q01DX009 (ip), vehicle: saline) was 87 % of control.

`O=C(CCN1CC1)Nc1cccc(NC(=O)CCN2CC2)c1` was tested, and the T/C (dose: 2.5 mg/kg/injection, schedule: Q01DX001 (ip), vehicle: Klucel (hydroxypropylcellulose) (HPC)) was 112 % of control and the T/C (dose: 40.0 mg/kg/injection, schedule: Q01DX001 (ip), vehicle: Klucel (hydroxypropylcellulose) (HPC)) was 153 % of control.

For `CC1(C)C2CCC1(C)C(Oc1ccccc1)C2` (stereo not given), the T/C [6] was 100 % of control and the T/C [7] was 98 % of control.

For `CN1CCC2(CC1)C(=O)N(Cc1ccccc1)C(=O)C2c1ccccc1` (stereo not given), the T/C (dose: 25.0 mg/kg/injection, schedule: Q04DX002 (ip), vehicle: saline) was 108 % of control, the T/C [15] was 93 % of control and the T/C (dose: 100.0 mg/kg/injection, schedule: Q04DX002 (ip), vehicle: saline) was 104 % of control and 118 % of control. The T/C (dose: 200.0 mg/kg/injection, schedule: Q04DX002 (ip), vehicle: Klucel (hydroxypropylcellulose) (HPC)) was 86 % of control.

In the case of `CC12CCCCC1C=CC(=O)C2` (stereo not given), the T/C (dose: 75.0 mg/kg/injection, schedule: Q01DX001 (ip), vehicle: other) is reported as 89 % of control and the T/C (dose: 150.0 mg/kg/injection, schedule: Q01DX001 (ip), vehicle: other) is reported as 94 % of control.

For `CC(C)CNC(=O)Nc1ccccc1`, the T/C (dose: 75.0 mg/kg/injection, schedule: Q01DX001 (ip), vehicle: saline) was 97 % of control and the T/C (dose: 150.0 mg/kg/injection, schedule: Q01DX001 (ip), vehicle: saline) was 95 % of control.

In the case of `c1ccc(-c2cc(-c3ccccc3)cc(-c3ccccc3)c2)cc1`, the T/C (dose: 1.56 mg/kg/injection, schedule: Q01DX009 (ip), vehicle: saline) is reported as 98 % of control, the T/C (dose: 3.12 mg/kg/injection, schedule: Q01DX009 (ip), vehicle: saline) is reported as 95 % of control and the T/C (dose: 6.25 mg/kg/injection, schedule: Q01DX009 (ip), vehicle: saline) is reported as 93 % of control.

In the case of `COC(=O)/C=C(\C)Nc1ccc([N+](=O)[O-])cc1`, the T/C [4] is reported as 97 % of control, the T/C [5] is reported as 93 % of control and the T/C [10] is reported as 92 % of control.
